Assay results reported in patent US10175256B2, “Compositions and methods utilizing lysophosphatidylcholine scaffolds” (National University Of Singapore, priority 2013, dated 2019).
Where “and” joins values, the source holds several entries; their conditions need not be identical. Equal values may be shown once. Values belong to the compound of their own block, whether it stands above or below them.

Experiments:
[1] = target: T1, Mfsd2a (Mus musculus, UniProt Q9DA75); assay: Competition transport assay with LPC-[3H]palmitate as ligand; type: cell-based; parameters: expressed in transfected cells; host or cells: HEK293; settings: 25 μM LPC-[3H]palmitate, 250 μM competitor, 15 mins
T1 sequence (Q9DA75 1-534): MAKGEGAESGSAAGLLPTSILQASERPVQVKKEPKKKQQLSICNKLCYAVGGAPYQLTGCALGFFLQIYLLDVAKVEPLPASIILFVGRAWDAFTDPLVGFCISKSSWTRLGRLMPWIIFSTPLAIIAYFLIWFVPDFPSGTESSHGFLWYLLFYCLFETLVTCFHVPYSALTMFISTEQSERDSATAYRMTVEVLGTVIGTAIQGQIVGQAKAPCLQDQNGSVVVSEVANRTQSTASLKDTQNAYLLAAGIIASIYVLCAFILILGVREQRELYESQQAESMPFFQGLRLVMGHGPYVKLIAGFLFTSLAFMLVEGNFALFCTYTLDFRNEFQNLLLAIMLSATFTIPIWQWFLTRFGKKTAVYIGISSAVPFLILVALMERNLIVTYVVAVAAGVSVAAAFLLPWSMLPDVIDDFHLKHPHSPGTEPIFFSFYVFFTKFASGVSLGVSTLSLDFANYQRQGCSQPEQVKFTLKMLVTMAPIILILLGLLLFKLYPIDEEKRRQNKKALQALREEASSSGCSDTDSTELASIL
Protocol: Briefly, 24 h post transfection of HEK293 cells with pcDNA3.1Mfsd2a (WT), pcDNA3.1Mfsd2aD92A (D92A), pcDNA3.1Mfsd2aD96A, or pcDNA3.1 (mock) plasmids were washed once with serum-free DMEM medium before addition of a mixture of 25 μM radiolabeled LPC-palmitate and 250 μM cold competitors, which were dissolved in 12% BSA. Total BSA concentration was kept constant in samples with or without cold competitors. Assays were performed at 37° C. for 30 mins. Competition assays with other LPC analogs such as foscholine detergents, and PAF were performed under the same conditions except for 15 mins. The reduced reaction time was necessary in order to limit potential negative effects of detergents and bioactive lipids on cell survival. All assays were performed in 12 well-plates with triplicates and at 37° C.
We next sought to determine ligand specificity and the chemical features of the LPC ligands that are required for transport by Mfsd2a.

[2] = target: T2, mouse Mfsd2a (Mus musculus, UniProt Q9DA75); assay: Cell-based free fatty acid transport/uptake in Mfsd2a expressing HEK293 cells (mass spectrometry, TLC; Table 1); settings: for Amount of each lipid species, mol percent in total phospholipid analysed / Amount of lipid species, mol percent in total phospholipid analysed / Amount of each lipid species normalized to internal standard, mol percent in total phospholipid analysed: replicate columns; for Amount of lipid species, mol percent in total phospholipid analysed / Amount of each lipid species normalized to internal standard, mol percent in total phospholipid analysed: Mfsd2a expressing HEK293 cells
T2 construct: expressed in transfected cells; host or cells: HEK293
T2 sequence (Q9DA75 1-534): T1 sequence (Q9DA75 1-534)
Protocol: (§1) FIG. 12. […] Std: free [^14C]-DHA. b. TLC analysis of phospholipids and neutral lipids of HEK293 cells transfected with mouse Mfsd2a and mutants after overnight incubation with 100 μM [^14C]-oleate. TLC protocol used was described in Methods. PC: phosphatidylcholine, PE: phosphatidylethanolamine, TAG: triglyceride, CE: cholesteryl ester.
(§2) For tissue lipid analysis, brain, liver, and heart of female WT and KO mice with age of 7-8 weeks born to HET mothers, and brains from e18.5 embryos were collected and immediately frozen with liquid nitrogen until extraction. Lipid extraction was followed by chloroform/methanol method. For cell-based free fatty acid transport, lipids from HEK293 cells expressing mouse Mfsd2a and mock controls after overnight treatment with 100 μM docosahexaenoic, arachidonic, eicosapentaenoic, alpha-linolenic, linoleic, oleic, palmitic acids in BSA complex were extracted using HIP buffer (hexane:iso-propanol 3:2, per volume) and dried under N2 gas. Phospholipid species were measured by high performance liquid chromatography (HPLC) 1100 system (Agilent) coupled with an Triple Quadrupole/Ion Trap mass spectrometer (4000Qtrap, Applied Biosystem). Levels of individual phospholipid species were analyzed as described previously and quantified using spiked internal standards that includes PC-14:0/14:0, PE-14:0/14:0, PS-14:0/14:0 (Avanti Polar Lipids, Alabaster, Ala., USA), and dioctanoyl PI (Echelon Biosciences, Inc., Salt Lake City, Utah, USA).

[3] = test system: mouse Mfsd2a; assay: as above; settings: for Amount of each lipid species, mol percent in total phospholipid analysed / Amount of each lipid species normalized to internal standard, mol percent in total phospholipid analysed / Amount of lipid species, mol percent in total phospholipid analysed: MS, replicate columns
Protocol: as §1, §2

[4] = Mfsd2a expressing HEK293 cells incubated with 100 uM Arachidonic fatty acid/BSA complex overnight, MS
[5] = 100 uM Alpha-linolenic fatty acid/BSA complex overnight
[6] = 100 uM Docosahexaenoic acid/BSA complex overnight, MS
[7] = 100 uM Oleic fatty acid/BSA complex overnight, MS
[8] = mock HEK293 cells incubated with 100 uM Arachidonic fatty acid/BSA complex overnight
[9] = mock HEK293 cells, 100 uM Docosahexaenoic acid/BSA complex overnight
[10] = mock HEK293 cells, 100 uM Oleic fatty acid/BSA complex overnight
[11] = Mfsd2a HEK293 cells, 100 uM fatty acid/BSA overnight
[12] = mock HEK293 cells, 100 uM fatty acid/BSA overnight

competition of foscholines with LPC-[3H]palmitate [1]: did not compete
Compound: CCCCCCCCOP(=O)([O-])OCC[N+](C)(C)C [Fos-8]

competition of foscholines with LPC-[3H]palmitate [1]: did not compete
Compound: CCCCCCCCCCOP(=O)([O-])OCC[N+](C)(C)C [Fos-10]

competition of foscholines with LPC-[3H]palmitate [1]: did not compete
Compound: CCCCCCCCCCCCOP(=O)([O-])OCC[N+](C)(C)C [Fos-12]

Compound: CCCCCCCCCCCCCCCCCC(=O)OC[C@@H](O)COP(=O)(O)OCCN [LysoPE18:0]
Amount of each lipid species, mol percent in total phospholipid analysed [2, 4]: 0.2569 mol percent and 0.2304 mol percent and 0.2461 mol percent and 0.117 mol percent | Amount of lipid species, mol percent in total phospholipid analysed [2, 5]: 0.3947 mol percent and 0.2832 mol percent and 0.2186 mol percent and 0.3429 mol percent | Amount of lipid species, mol percent in total phospholipid analysed ([2]; 100 uM Linoleic fatty acid/BSA complex overnight): 0.1058 mol percent and 0.1018 mol percent and 0.1894 mol percent and 0.0869 mol percent | Amount of each lipid species normalized to internal standard, mol percent in total phospholipid analysed [2, 6]: 0.1666 mol percent and 0.2308 mol percent (2×) and 0.1334 mol percent | Amount of each lipid species normalized to internal standard, mol percent in total phospholipid analysed ([2]; 100 uM Eicosapentaenoic acid/BSA complex overnight, MS): 0.1092 mol percent and 0.307 mol percent and 0.1931 mol percent and 0.2135 mol percent | Amount of lipid species, mol percent in total phospholipid analysed [2, 7]: 0.09201 mol percent and 0.1193 mol percent and 0.148 mol percent and 0.05384 mol percent | Amount of each lipid species, mol percent in total phospholipid analysed [3, 8]: 0.1798 mol percent and 0.2163 mol percent and 0.1654 mol percent | Amount of each lipid species normalized to internal standard, mol percent in total phospholipid analysed [3, 9]: 0.2527 mol percent and 0.249 mol percent and 0.1539 mol percent | Amount of each lipid species normalized to internal standard, mol percent in total phospholipid analysed ([3]; mock HEK293 cells, 100 uM Eicosapentaenoic acid/BSA complex overnight): 0.2356 mol percent and 0.2515 mol percent and 0.1233 mol percent | Amount of lipid species, mol percent in total phospholipid analysed [3, 10]: 0.168 mol percent and 0.1023 mol percent and 0.04024 mol percent

Compound: CCCCCCCCCCCCCCCC/C=C\OC[C@@H](O)COP(=O)(O)OCCN [LysoPE18:0p]
Amount of each lipid species, mol percent in total phospholipid analysed [2, 4]: 0.5873 mol percent and 0.5865 mol percent and 0.323 mol percent and 0.5348 mol percent | Amount of each lipid species, mol percent in total phospholipid analysed [3, 8]: 0.6519 mol percent and 0.416 mol percent and 0.215 mol percent

Compound: CCCCCCCCCCCCCCCCCC/C=C\OC[C@@H](O)COP(=O)(O)OCCN [LysoPE20:0p]
Amount of each lipid species, mol percent in total phospholipid analysed [2, 4]: 0.3303 mol percent and 0.2723 mol percent and 0.1846 mol percent and 0.2172 mol percent | Amount of each lipid species, mol percent in total phospholipid analysed [3, 8]: 0.2922 mol percent and 0.183 mol percent and 0.1158 mol percent

Compound: CCCCCCCC/C=C\CCCCCCCC(=O)O [Oleic]
% DHA in PS [2, 11]: 0.1056% and 0.1088% and 0.1312% and 0.1092% | PS(sum) in total phospholipid [2, 11]: 2.787 mol percent and 2.992 mol percent and 3.252 mol percent and 2.587 mol percent | PS:36:1 in total phospholipid [2, 11]: 1.289 mol percent and 1.358 mol percent and 1.479 mol percent and 1.19 mol percent | PS:36:2 in total phospholipid [2, 11]: 0.4671 mol percent and 0.4839 mol percent and 0.5719 mol percent and 0.4252 mol percent | PS:36:3 in total phospholipid [2, 11]: 0.0188 mol percent and 0.02264 mol percent and 0.01888 mol percent and 0.01251 mol percent | PS:36:4 in total phospholipid [2, 11]: 0.003419 mol percent and 0.003995 mol percent and 0.004969 mol percent and 0.003335 mol percent | PS:38:2 in total phospholipid [2, 11]: 0.2325 mol percent and 0.2459 mol percent and 0.2529 mol percent and 0.1984 mol percent | PS:38:3 in total phospholipid [2, 11]: 0.1257 mol percent and 0.1554 mol percent and 0.1491 mol percent and 0.1276 mol percent | PS:38:4 in total phospholipid [2, 11]: 0.06539 mol percent and 0.08301 mol percent and 0.08249 mol percent and 0.07253 mol percent | PS:38:5 in total phospholipid [2, 11]: 0.008121 mol percent and 0.01199 mol percent and 0.01093 mol percent and 0.01084 mol percent | PS:40:4 in total phospholipid [2, 11]: 0.09916 mol percent and 0.08523 mol percent and 0.1014 mol percent and 0.07753 mol percent | PS:40:5 in total phospholipid [2, 11]: 0.05001 mol percent and 0.05638 mol percent and 0.05863 mol percent and 0.05419 mol percent | PS:40:6 in total phospholipid [2, 11]: 0.09445 mol percent and 0.09677 mol percent and 0.1222 mol percent and 0.0942 mol percent | PS:40:7 in total phospholipid [2, 11]: 0.01111 mol percent and 0.01199 mol percent and 0.008944 mol percent and 0.01501 mol percent | % DHA in PS [3, 12]: 0.107% and 0.1103% and 0.1249% | PS(sum) in total phospholipid [3, 12]: 2.685 mol percent and 3.082 mol percent and 2.902 mol percent | PS:36:1 in total phospholipid [3, 12]: 1.21 mol percent and 1.398 mol percent and 1.339 mol percent | PS:36:2 in total phospholipid [3, 12]: 0.4461 mol percent and 0.5356 mol percent and 0.4546 mol percent | PS:36:3 in total phospholipid [3, 12]: 0.0148 mol percent and 0.01325 mol percent and 0.01917 mol percent | PS:38:2 in total phospholipid [3, 12]: 0.2083 mol percent and 0.235 mol percent and 0.2311 mol percent | PS:38:3 in total phospholipid [3, 12]: 0.1326 mol percent and 0.1657 mol percent and 0.1369 mol percent | PS:38:4 in total phospholipid [3, 12]: 0.07625 mol percent and 0.06869 mol percent and 0.07723 mol percent | PS:38:5 in total phospholipid [3, 12]: 0.01081 mol percent and 0.01386 mol percent and 0.0115 mol percent | PS:40:4 in total phospholipid [3, 12]: 0.09048 mol percent and 0.1018 mol percent and 0.09531 mol percent | PS:40:5 in total phospholipid [3, 12]: 0.06829 mol percent and 0.04459 mol percent and 0.0619 mol percent | PS:40:6 in total phospholipid [3, 12]: 0.09845 mol percent and 0.1006 mol percent and 0.1134 mol percent | PS:40:7 in total phospholipid [3, 12]: 0.008536 mol percent and 0.00964 mol percent and 0.0115 mol percent

Compound: PE38:5
Amount of each lipid species, mol percent in total phospholipid analysed [2, 4]: 1.517 mol percent and 1.746 mol percent and 1.538 mol percent and 1.292 mol percent | Amount of each lipid species, mol percent in total phospholipid analysed ([2]; Mfsd2a expressing HEK293 cells incubated with 100 uM Eicosapentaenoic fatty acid/BSA complex overnight, MS): 0.8525 mol percent and 0.7862 mol percent and 1.249 mol percent and 0.8033 mol percent | Amount of lipid species, mol percent in total phospholipid analysed [2, 5]: 2.013 mol percent and 1.902 mol percent and 1.704 mol percent and 1.689 mol percent | Amount of each lipid species normalized to internal standard, mol percent in total phospholipid analysed [2, 6]: 0.6996 mol percent and 0.7565 mol percent and 0.8996 mol percent and 0.9147 mol percent | Amount of lipid species, mol percent in total phospholipid analysed ([2]; 100 uM Linoleic fatty acid/BSA complex overnight, MS): 0.714 mol percent and 1.007 mol percent and 0.7471 mol percent and 0.7035 mol percent | Amount of lipid species, mol percent in total phospholipid analysed [2, 7]: 0.6441 mol percent and 0.6477 mol percent and 0.57 mol percent and 0.5862 mol percent | Amount of each lipid species, mol percent in total phospholipid analysed [3, 8]: 1.648 mol percent and 1.509 mol percent and 1.4 mol percent | Amount of each lipid species, mol percent in total phospholipid analysed ([3]; mock HEK293 cells incubated with 100 uM Eicosapentaenoic fatty acid/BSA complex overnight): 1.214 mol percent and 0.8982 mol percent and 0.9456 mol percent | Amount of each lipid species normalized to internal standard, mol percent in total phospholipid analysed [3, 9]: 0.6844 mol percent and 0.8632 mol percent and 0.5129 mol percent | Amount of lipid species, mol percent in total phospholipid analysed ([3]; mock HEK293 cells, 100 uM Linoleic fatty acid/BSA complex overnight): 0.9188 mol percent and 0.8836 mol percent and 0.7914 mol percent | Amount of lipid species, mol percent in total phospholipid analysed [3, 10]: 0.809 mol percent and 0.6822 mol percent and 0.456 mol percent
